{"source": "paper PMC3962266", "about": "(Journal of medicinal chemistry, 2013)", "origin": "cited, not measured here", "key": {"[1]": {"assay": "not given", "remark": "listed apart in the source"}, "[2]": {"assay": "not given", "remark": "listed apart in the source"}}}
{"smiles": "CCCCNc1ncc2c(-c3ccc(S(=O)(=O)N4CCOCC4)cc3)nn(C3CCC(O)CC3)c2n1", "note": "(stereo not shown) [UNC1062]", "values": [{"measurement": "Pharmacokinetic (PK) properties", "result": "poor pharmacokinetic (PK) properties"}, {"measurement": "Solubility", "setting": "[1]", "result": "low solubility"}]}
{"smiles": "CC(=O)Oc1ccccc1C(=O)O", "note": "[aspirin]", "values": [{"measurement": "Baseline major bleeding risk (gastrointestinal or intracranial)", "setting": "[2]", "result": "1–4%"}]}
{"smiles": "COC(=O)[C@H](c1ccccc1Cl)N1CCc2sccc2C1", "note": "[clopidogrel]", "values": [{"measurement": "Further increase of bleeding risk on addition as combination therapy", "setting": "[2]; added to aspirin", "result": 1, "unit": "%"}]}
